Legend:
Polygonum convolvulus = assay: Post-emergence action against weeds, greenhouse, visual scoring; type: in vivo; settings: scoring 11 days after application
Description: (§1) Seeds or rhizome pieces of monocotyledonous and dicotyledonous weeds were placed in sandy loam soil in plastic pots, covered with soil and cultivated in a greenhouse under good growth conditions. Three weeks after sowing, the test plants were treated at the 2- to 4-leaf stage. The compounds according to the invention, formulated as wettable powders or as emulsion concentrates, were sprayed onto the green parts of the plants in various dosages at a water application rate of 100 to 800 l/ha (converted). After the test plants had been left to stand in the greenhouse for 10 to 28 days under optimum growth conditions, the effect of the preparations was scored visually in comparison to untreated controls.
0%=no control 100%=complete control

Galium aparine = assay: as above; type: in vivo; settings: scoring 11 days after application, 0=no control, 100=complete control
Description: as §1
0=no control 100=complete control

Cc1nn(C)c(O)c1C(=O)c1ccc(C(F)(F)F)cc1S(C)(=O)=O [Compound B1-6, pyrasulfotole]
Polygonum convolvulus Control in % (Polygonum convolvulus; 25 g of ai/ha, 0%=no control, 100%=complete control): 20%

CCOC(=O)COc1cc(-c2nn(C)c(OC(F)F)c2Cl)c(F)cc1Cl [Compound B2-1, pyraflufen-ethyl]
Galium aparine Control in % (Galium aparine; 2 g of ai/ha): 23%

CS(=O)(=O)c1cc(C(F)(F)F)ccc1C(=O)c1cnoc1C1CC1 [Compound B3-3, isoxaflutole]
Polygonum convolvulus Control in % (Polygonum convolvulus; 50 g of ai/ha, 0=no control, 100=complete control): 25%

COCc1cnc(C2=NC(C)(C(C)C)C(=O)N2)c(C(=O)O)c1 (centres unmarked) [Compound B4-2, imazamox]
Galium aparine Control in % (Galium aparine; 10 g of ai/ha): 75%

CCN(C(=O)n1nnn(-c2ccccc2Cl)c1=O)C1CCCCC1 [Compound B8-1, fentrazamide]
Polygonum convolvulus Control in % (Polygonum convolvulus; 250 g of ai/ha, 0%=no control, 100%=complete control): 20%

CCc1cc(C)cc(CC)c1-c1c(OC(=O)C(C)(C)C)n2n(c1=O)CCOCC2 [Compound B9-1, pinoxaden]
Polygonum convolvulus Control in % (Polygonum convolvulus; 15 g of ai/ha, 0=no control, 100=complete control): 20%

sodium salt of 2-iodo-N-[(4-methoxy-6-methyl-1,3,5-triazin-2-yl)carbamoyl]benzenesulfonamide [Compound A-2]
Galium aparine Control in % (Galium aparine; 2.5 g of ai/ha): 0%
Polygonum convolvulus Control in % (Polygonum convolvulus; 2.5 g of ai/ha, 0%=no control, 100%=complete control): 10%
